# Data published in patent publication US5621010A, “Urea derivatives and their use as ACAT inhibitors” (Nisshin Flour Milling Co., Ltd., priority 1993, dated 1997).
# System: ACAT (liver microsome fractions of male rabbits)
# Test: ACAT inhibitory activity: formation of labelled cholesteryl esters from [1-14C]oleoyl-CoA and endogenous cholesterol
# Format: biochemical, rabbit
# Conditions: compound added at 10^-7 M
# Method: The enzyme preparation, ACAT was prepared from liver microsme fractions of male rabbits according to the method of E. E. Largis et al. (Journal of Lipid Research, Vol. 30, pages 681-690, 1989). The activity was calculated by assaying the amount of the labelled cholesteryl esters formed from [1-^14 C]oleoyl-CoA and endogenous cholesterol according to the method of Kazuichi NATORI et al. (Japan J. Pharmacol., Vol. 42, pages 517-523, 1986).
# The result is shown in Table 1, in which percent inhibition of the formation of the labelled cholesteryl esters with a compound added at 10^-7 M is indicated as index for the ACAT inhibitory activity.
row,SMILES,ACAT Inhibition
1,"CC(C)(C)c1cc(CCc2ccccc2NC(=O)NCC(C)(C)c2ccc(F)cc2)cc(C(C)(C)C)c1O [Example 140, N-[2-(3,5-di-tert-butyl-4-hydroxyphenethyl)phenyl]-N'-[2-(4-fluorophenyl)-2-methylpropyl]urea]",96%
2,"CN(C(=O)Nc1c(F)cc(F)cc1CCc1cc(C(C)(C)C)c(O)c(C(C)(C)C)c1)C1CCN(Cc2ccccc2)CC1 [Example 165, N-[2-(3,5-di-tert-butyl-4-hydroxyphenethyl)-4,6-difluorophenyl]-N'-(1-benzyl-4-piperidyl)-N'-methylurea]",99%
3,"CCCN(C(=O)Nc1ccccc1CCc1cc(C(C)(C)C)c(O)c(C(C)(C)C)c1)C1CCN(Cc2ccccc2)CC1 [Example 146, N-[2-(3,5-di-tert-butyl-4-hydroxyphenethyl)phenyl]-N'-(1-benzyl-4-piperidyl)-N'-propylurea]",85%
4,"CC(C)(C)c1cc(CCc2ccccc2NC(=O)N[C@H](C(=O)OCc2ccccc2)c2ccccc2)cc(C(C)(C)C)c1O [Example 173, (S)-N-[2-(3,5-di-tert-butyl-4-hydroxyphenethyl)phenyl]-N'-(α-benzyloxycarbonyl)benzylurea]",95%
5,"CC(C)(C)c1cc(CCc2ccc(Cl)cc2NC(=O)NC2CCN(Cc3ccccc3)CC2)cc(C(C)(C)C)c1O [Example 183, N-[2-(3,5-di-tert-butyl-4-hydroxyphenethyl)-5-chlorophenyl]-N'-(1-benzyl-4-piperidyl)urea]",91%
6,"CC(C)(C)c1cc(CCc2cc(F)cc(F)c2NC(=O)NC2CCN(Cc3ccccc3)CC2)cc(C(C)(C)C)c1O.Cl [Example 167, N-[2-(3,5-di-tert-butyl-4-hydroxyphenethyl)-4,6-difluorophenyl]-N'-(1-benzyl-4-piperidyl)urea hydrochloride]",100%
7,"CC1(C)CCCN(C(=O)Nc2ccccc2CCc2cc(C(C)(C)C)c(O)c(C(C)(C)C)c2)C1 [Example 177, 1-[N-[2-(3,5-di-tert-butyl-4-hydroxyphenethyl)phenyl]carbamoyl]-3,3-dimethylpiperidine]",98%
8,"CC(C)(C)c1cc(CCc2c(F)cccc2NC(=O)NC2CCN(Cc3ccccc3)CC2)cc(C(C)(C)C)c1O [Example 155, N-[2-(3,5-di-tert-butyl-4-hydroxyphenethyl)-3-fluorophenyl]-N'-(1-benzyl-4-piperidyl)urea]",94%
9,"Cc1cccc(CCc2cc(C(C)(C)C)c(O)c(C(C)(C)C)c2)c1NC(=O)NC1CCN(Cc2ccccc2)CC1 [Example 168, N-[2-(3,5-di-tert-butyl-4-hydroxyphenethyl)-6-methylphenyl]-N'-(1-benzyl-4-piperidyl)urea]",93%
10,CC(C)(C)c1cc(CCc2cc(F)cc(F)c2NC(=O)N2CCC[C@H]3CCCC[C@H]32)cc(C(C)(C)C)c1O (relative stereo) [Example 166],100%
11,"COc1cccc(CCc2cc(C(C)(C)C)c(O)c(C(C)(C)C)c2)c1NC(=O)NC1CCN(Cc2ccccc2)CC1 [Example 163, N-[2-(3,5-di-tert-butyl-4-hydroxyphenethyl)-6-methoxyphenyl]-N'-(1-benzyl-4-piperidyl)urea]",81%
12,CC(C)(C)c1cc(/C=C/c2ccccc2NC(=O)N2CCC[C@H]3CCCC[C@H]32)cc(C(C)(C)C)c1O (relative stereo) [Example 159],97%
13,"CC(C)(C)c1cc(CCc2ccccc2NC(=O)NCC(C)(C)c2ccc(N3CCCC3)cc2)cc(C(C)(C)C)c1O [Example 141, N-[2-(3,5-di-tert-butyl-4-hydroxyphenethyl)phenyl]-N'-[2-[4-(1-pyrrolidinyl)phenyl]-2-methylpropyl]urea]",86%
